Drawing on paper PMC6934184, “Selective DNA-PKcs inhibition extends the therapeutic index of localized radiotherapy and chemotherapy” (The Journal of Clinical Investigation, 2019), this text covers inhibition for one compound.

The assay addresses T1, KIT A829P (Homo sapiens, UniProt P10721, A829P).
T1 construct: purchased Thermo Fisher Scientific (Life Technologies) SelectScreen
The experiment in a line: SelectScreen LanthaScreen. Format: binding. The settings on record: read-out: % displacement. In short, it runs like this:
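SelectScreen broad panel; activity (Z'LYTE, Adapta) plus binding formats. ATP: Km app for CSF1R Z'LYTE; 10 for CAMK1 Adapta. Readout = % per kinase.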
Background: In TR-FRET formats the signal depends on donor and acceptor labels being close together.

Each structure is given as a SMILES string.

T1 sequence (P10721 26-976 A829P): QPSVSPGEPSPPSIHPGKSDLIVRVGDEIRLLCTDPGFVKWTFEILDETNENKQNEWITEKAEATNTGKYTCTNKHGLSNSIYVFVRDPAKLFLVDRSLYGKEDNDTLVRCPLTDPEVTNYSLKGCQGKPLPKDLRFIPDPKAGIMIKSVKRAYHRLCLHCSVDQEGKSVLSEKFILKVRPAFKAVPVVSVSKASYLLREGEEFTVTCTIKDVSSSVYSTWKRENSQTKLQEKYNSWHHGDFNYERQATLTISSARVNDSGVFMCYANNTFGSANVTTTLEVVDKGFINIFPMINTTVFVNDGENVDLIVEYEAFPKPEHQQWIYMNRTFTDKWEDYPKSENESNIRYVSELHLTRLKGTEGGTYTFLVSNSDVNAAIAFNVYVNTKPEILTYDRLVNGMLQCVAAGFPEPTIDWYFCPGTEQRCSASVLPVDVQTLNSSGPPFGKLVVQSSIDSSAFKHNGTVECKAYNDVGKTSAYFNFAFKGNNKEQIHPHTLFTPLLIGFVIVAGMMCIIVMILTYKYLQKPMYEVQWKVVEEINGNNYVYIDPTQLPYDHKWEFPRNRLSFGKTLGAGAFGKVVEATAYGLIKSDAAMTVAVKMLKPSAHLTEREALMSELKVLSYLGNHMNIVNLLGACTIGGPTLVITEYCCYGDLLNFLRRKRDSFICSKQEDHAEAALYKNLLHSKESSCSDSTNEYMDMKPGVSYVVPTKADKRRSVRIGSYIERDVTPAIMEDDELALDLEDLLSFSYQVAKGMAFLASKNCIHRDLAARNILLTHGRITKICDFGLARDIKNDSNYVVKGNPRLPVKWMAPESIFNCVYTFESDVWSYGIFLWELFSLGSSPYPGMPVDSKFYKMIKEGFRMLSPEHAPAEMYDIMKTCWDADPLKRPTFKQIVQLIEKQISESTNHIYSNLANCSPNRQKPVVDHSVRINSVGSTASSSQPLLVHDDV

On to `CN(C(=O)CN1CCOCC1)c1ccc2sc3c(-c4cccc5c(=O)cc(N6CC7CCC(C6)O7)oc45)cccc3c2c1` [NU5455], for which the inhibition at 1 µM stood at 0.7%.
